Measurements reported in patent US4104397A, “Spiro (1,3-dioxolane-4,3') quinuclidine compounds” (The Purdue Frederick Company, priority 1975, dated 1978).
Several values for one entry are separate records, joined by “and”; a condition that tells them apart may be missing. Equal values may be shown once. Where a name gives a salt, the structure may show the parent alone. Read-outs that look alike come from different tables or passages of the source.

Experiments:
[1] = Biological activity of the cis-isomer; conditions: in words, cis/trans comparison
mice [2] = test: Tremors (tremorigenic activity) in mice, Table 2; type: in vivo; conditions: Mus musculus, ip, read-out: Tremors ED50 (ip)
Excerpt: (§1) Acute Toxicity, tremorigenic and sialigenic
(§2) *with 95% confidence limits, Litchfield & Wilcoxon, (1949).

Guinea pig ileum = Guinea pig ileum induced contraction in vitro, Table 1; type: cell-based; conditions: equipotent molar ratio relative to ACh
Excerpt: (§3) cat mice cat Guinea pig ileum
(iv) induced contraction
(§4) **EPMR: equipotent molar ratio relative to ACh. nmole: nannomoles

mice [3] = test: Induced tremors in mice, Table 1; type: in vivo; conditions: Mus musculus, ip, read-out: Induced tremors ED50 (ip)
Excerpt: as §3
(§5) *with 95% confidence limits (Litchfield et al, 1949)

blood pressure = test: Fall in blood pressure in vivo, Table 1; parameters: species or system cat; conditions: iv; for ED50: Felis catus, read-out: Fall blood pressure ED50 (iv); for Fall blood pressure EPMR: equipotent molar ratio relative to ACh
Excerpt: as §3, §5, §4

[4] = Acute toxicity in mice, Table 2; conditions: mouse, in vivo
Excerpt: as §2

mice [5] = conditions: Chiang & Leaders, 1971; cited from earlier work
mice [6] = test: Salivation (sialigenic activity) in mice, Table 2; type: in vivo; conditions: Mus musculus, ip, read-out: Salivation ED50 (ip)
Excerpt: as §1, §2
**Chiang & Leaders, 1971

SCG = SCG (cat), antagonism to McN-A-343 induced contraction of NM; type: in vivo
Excerpt: |induced contraction of NM

[7] = tested on: Oxotromorine induced tremors; test: Antagonism to oxotremorine induced tremors; type: in vivo, Mice; conditions: Mus musculus, sc
Description: (§6) *With 95% confidence limits (Litchfield and Wilcoxon, 1949).
(§7) ^+ R1 =R2 =.PHI.,HCl is injected 20 min. prior to […]

[8] = tested on: Oxotromorine induced salivation; test: Antagonism to oxotremorine induced salivation; type: in vivo, Mice; conditions: Mus musculus, sc
Description: as §6
**Oxotromorine, 170 μg/kg, ip (1.15 ED50) induced salivation.
as §7

[9] = tested on: autonomic ganglionic and central muscarinic receptors; test: Cholinergic stimulant activity and specificity; conditions: in words
[10] = tested on: enzyme which desactivates acetylcholine; test: Stability to the enzyme which desactivates acetylcholine; type: in vitro ADME; conditions: in words
Anticholinergic activity = conditions: in words
[11] = tested on: Physostigmine induced lethality; test: Antagonism to physostigmine induced lethality; type: in vivo, Mice; conditions: Mus musculus, sc
Excerpt: as §6

LD50 in mice, Table 3 = conditions: mouse, in vivo, sc
Guinea-pig ileum = biological target: T1, Guinea-pig ileum (Cavia porcellus, UniProt H0W1Z3); test: Antagonism in guinea-pig ileum (log Ki), Table 3; type: cell-based; conditions: printed as log Ki (negative)
T1 construct: Guinea-pig ileum, log Ki; from tissue; host or cells: guinea-pig ileum

mydriatic activity = test: Relative mydriatic activity, Table 3; type: in vivo; conditions: atropine sulphate = 1
[12] = tested on: Oxotromorine induced tremors and salivation; test: CNS/PNS activity (ED50 blockade of tremors / ED50 blockade of salivation); type: in vivo, Mice; conditions: ED50 for blockade of tremors divided by ED50 for blockade of salivation; 95% confidence limits
Excerpt: as §6

T1 sequence (H0W1Z3 1-590): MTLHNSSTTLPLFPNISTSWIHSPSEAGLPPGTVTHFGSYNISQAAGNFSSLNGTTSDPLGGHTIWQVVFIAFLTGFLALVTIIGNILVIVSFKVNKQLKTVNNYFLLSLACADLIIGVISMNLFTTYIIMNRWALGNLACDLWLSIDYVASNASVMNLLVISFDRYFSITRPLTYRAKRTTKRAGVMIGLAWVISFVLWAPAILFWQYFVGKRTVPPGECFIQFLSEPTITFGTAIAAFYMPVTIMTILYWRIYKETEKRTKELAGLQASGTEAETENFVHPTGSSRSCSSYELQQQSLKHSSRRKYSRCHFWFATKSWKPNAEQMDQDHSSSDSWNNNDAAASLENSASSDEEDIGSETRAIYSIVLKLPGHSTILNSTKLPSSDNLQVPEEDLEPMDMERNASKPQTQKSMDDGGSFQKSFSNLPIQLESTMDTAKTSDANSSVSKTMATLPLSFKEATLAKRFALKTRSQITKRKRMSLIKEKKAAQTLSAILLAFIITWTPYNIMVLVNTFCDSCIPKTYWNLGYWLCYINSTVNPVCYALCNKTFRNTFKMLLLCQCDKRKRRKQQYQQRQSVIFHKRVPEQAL

CC1OCC2(CN3CCC2CC3)O1 (single isomer, unassigned; isomer 2) [cis-isomer, 2-methyl spiro (1,3-dioxolane-4,3') quinuclidine]
biological activity of the cis-isomer [1]: greater biological activity

CC(=O)OC1CN2CCC1CC2 (stereo not drawn) [3-Acetoxyquinuclidine]
ED50 (mice [2]): 7.5 mg/kg and 36.5 µmol/kg
Guinea pig ileum induced contraction EPMR (Guinea pig ileum): 14
ED50 (mice [3]): 7.5 mg/kg and 36.5 µmol/kg
ED50 (blood pressure): 0.0002 mg/kg and 0.001 µmol/kg
Fall blood pressure EPMR (blood pressure; cat): 6.25
LD50 ([4]; sc): 112 mg/kg
Salivation ED50 (ip) (mice [5]): 2.9 mg/kg
ED50 (mice [6]): 1.8 mg/kg and 8.8 µmol/kg

CC(=O)OC(C)C[N+](C)(C)C (stereo not drawn) [Acetyl-β-methyl choline]
Guinea pig ileum induced contraction EPMR (Guinea pig ileum): 3.6

CC(=O)OCC[N+](C)(C)C [Acetylcholine]
ED50 (blood pressure; cat): 0.00016 µmol/kg

CN1[C@@H]2CC[C@H]1CC(OC(=O)C(CO)c1ccccc1)C2 (stereo partly drawn) [Atropine Sulphate, reference compound]
antagonism to McN-A-343 induced contraction of NM ED50 (ia) (SCG): 1.4 µmol
ED50 [7]: 1 µmol/kg
ED50 [8]: 0.039 µmol/kg

CC1OCC2(CN3CCC2CC3)O1 (stereo not drawn) [Example 1, 2-Methyl spiro (1,3-dioxolane-4,3')Quinuclidine]
cholinergic stimulant activity [9]: specific and powerful cholinergic stimulant
specificity towards autonomic ganglionic and central muscarinic receptors [9]: high degree of specificity
destruction by the enzyme which desactivates acetylcholine [10]: not destroyed by the enzyme which desactivates acetylcholine

c1ccc(C2(c3ccccc3)OCC3(CN4CCC3CC4)O2)cc1 (stereo not drawn) [Example 3, 2,2-diphenyl spiro (1,3-dioxolane-4,3')quinuclidine]
anticholinergic activity (Anticholinergic activity): powerful anticholinergic agent

CC1OCC2(CN3CCC2CC3)O1 (stereo not drawn) [I,R1 =H,R2 =-CH3.HCl, 2-methyl spiro (1,3-dioxolane-4,3') quinuclidine]
ED50 (mice [2]; mice): 4.5 mg/kg and 20.5 µmol/kg
Guinea pig ileum induced contraction EPMR (Guinea pig ileum): 240
ED50 (mice [3]; mice): 4.5 mg/kg and 20.5 µmol/kg
ED50 (blood pressure; cat): 0.0066 mg/kg and 0.0301 µmol/kg
Fall blood pressure EPMR (blood pressure; cat): 188
LD50 ([4]; sc): 220 mg/kg
ED50 (mice [6]; mice): 3 mg/kg and 13.7 µmol/kg

c1ccc(C2(c3ccccc3)OCC3(CN4CCC3CC4)O2)cc1 (stereo not drawn) [I,R1 =R2 =phenyl,HCl, 2,2-diphenyl spiro (1,3-dioxolane-4,3')quinuclidine]
ED50 [11]: 0.2 µmol/kg
antagonism to McN-A-343 induced contraction of NM ED50 (ia) (SCG): 0.5 µmol
LD50 (LD50 in mice, Table 3): 40 mg/kg
Ki (Guinea-pig ileum): 0.251 nM
ED50 [7]: 0.31 µmol/kg
ED50 [8]: 0.28 µmol/kg
Relative mydriatic activity (mydriatic activity): 1.5
CNS/PNS activity [12]: 1.1(0.77-1.56)

O=C1CCCN1CC#CCN1CCCC1 [Oxotremorine]
ED50 (mice [2]; mice): 0.14 mg/kg and 0.73 µmol/kg
LD50 ([4]; ip): 5 mg/kg
ED50 (mice [6]; mice): 0.12 mg/kg and 0.63 µmol/kg
